Data on three compounds can be found in ChEMBL document CHEMBL1201862, “PubChem BioAssay data set” (2004).

Molecules are shown by their SMILES. Activity calls are given as the source filed them.

What all share (assay type): functional
The target in assay [1] is Dual specificity protein kinase CLK4 (Homo sapiens, UniProt Q9HAZ1).
Assay [2] addresses T1, Aurora kinase A (Homo sapiens, UniProt O14965).
T1 sequence (O14965 whole entry): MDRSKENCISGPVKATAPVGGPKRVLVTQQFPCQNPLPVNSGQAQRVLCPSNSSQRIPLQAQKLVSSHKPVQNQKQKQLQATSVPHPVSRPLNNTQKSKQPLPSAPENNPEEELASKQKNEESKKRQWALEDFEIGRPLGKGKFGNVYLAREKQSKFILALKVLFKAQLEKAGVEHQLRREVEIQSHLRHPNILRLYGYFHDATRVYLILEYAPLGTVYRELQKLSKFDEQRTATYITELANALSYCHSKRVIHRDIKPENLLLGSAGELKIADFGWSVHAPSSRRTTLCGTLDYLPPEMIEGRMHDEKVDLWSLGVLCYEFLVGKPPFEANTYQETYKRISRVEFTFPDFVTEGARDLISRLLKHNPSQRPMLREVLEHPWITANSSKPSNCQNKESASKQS

Assay [3] deals with Death-associated protein kinase 3 (Homo sapiens, UniProt O43293).
Chain of Death-associated protein kinase 3 (O43293 whole entry): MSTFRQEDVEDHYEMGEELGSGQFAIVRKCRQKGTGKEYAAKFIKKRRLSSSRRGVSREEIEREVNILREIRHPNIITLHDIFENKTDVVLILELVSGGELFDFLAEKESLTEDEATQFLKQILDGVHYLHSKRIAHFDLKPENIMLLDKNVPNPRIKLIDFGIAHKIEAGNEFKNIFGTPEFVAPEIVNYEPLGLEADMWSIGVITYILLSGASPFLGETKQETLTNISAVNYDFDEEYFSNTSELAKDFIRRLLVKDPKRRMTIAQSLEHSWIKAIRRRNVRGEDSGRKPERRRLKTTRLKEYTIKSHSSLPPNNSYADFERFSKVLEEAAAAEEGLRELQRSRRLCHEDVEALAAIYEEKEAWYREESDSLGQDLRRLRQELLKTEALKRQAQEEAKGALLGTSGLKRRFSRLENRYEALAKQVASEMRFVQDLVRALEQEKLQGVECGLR
The target of assay [4] is Dual specificity tyrosine-phosphorylation-regulated kinase 1A (Homo sapiens, UniProt Q13627).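 Note: measured against DYRK1A as one member of a broad kinome profiling panel.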
Assay [5] concerns the target Cyclin-dependent kinase 5 (Homo sapiens, UniProt Q00535).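 Note: CDK5 measured as one member of a kinase profiling panel.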
In assay [6] the target is Calcium/calmodulin-dependent protein kinase type II subunit alpha (Homo sapiens, UniProt Q9UQM7). Nature of the assay: Navigating the Kinome. Panel member name: CAMK2A.
Chain of Calcium/calmodulin-dependent protein kinase type II subunit alpha (Q9UQM7 whole entry): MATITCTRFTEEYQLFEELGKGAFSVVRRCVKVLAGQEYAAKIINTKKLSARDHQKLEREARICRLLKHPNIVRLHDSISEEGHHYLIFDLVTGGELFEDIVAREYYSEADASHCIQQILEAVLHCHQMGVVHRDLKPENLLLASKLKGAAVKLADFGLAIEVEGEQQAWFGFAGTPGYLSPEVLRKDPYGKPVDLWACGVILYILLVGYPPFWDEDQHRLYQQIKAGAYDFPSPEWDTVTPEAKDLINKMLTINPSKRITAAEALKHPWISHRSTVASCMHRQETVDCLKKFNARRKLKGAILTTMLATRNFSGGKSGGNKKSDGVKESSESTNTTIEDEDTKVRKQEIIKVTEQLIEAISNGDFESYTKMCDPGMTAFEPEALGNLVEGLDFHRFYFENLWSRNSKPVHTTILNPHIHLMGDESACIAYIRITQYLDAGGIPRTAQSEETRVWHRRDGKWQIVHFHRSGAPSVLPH
Assay [7] deals with T2, Mitogen-activated protein kinase kinase kinase kinase 2 (Homo sapiens, UniProt Q12851).
T2 sequence (Q12851 whole entry): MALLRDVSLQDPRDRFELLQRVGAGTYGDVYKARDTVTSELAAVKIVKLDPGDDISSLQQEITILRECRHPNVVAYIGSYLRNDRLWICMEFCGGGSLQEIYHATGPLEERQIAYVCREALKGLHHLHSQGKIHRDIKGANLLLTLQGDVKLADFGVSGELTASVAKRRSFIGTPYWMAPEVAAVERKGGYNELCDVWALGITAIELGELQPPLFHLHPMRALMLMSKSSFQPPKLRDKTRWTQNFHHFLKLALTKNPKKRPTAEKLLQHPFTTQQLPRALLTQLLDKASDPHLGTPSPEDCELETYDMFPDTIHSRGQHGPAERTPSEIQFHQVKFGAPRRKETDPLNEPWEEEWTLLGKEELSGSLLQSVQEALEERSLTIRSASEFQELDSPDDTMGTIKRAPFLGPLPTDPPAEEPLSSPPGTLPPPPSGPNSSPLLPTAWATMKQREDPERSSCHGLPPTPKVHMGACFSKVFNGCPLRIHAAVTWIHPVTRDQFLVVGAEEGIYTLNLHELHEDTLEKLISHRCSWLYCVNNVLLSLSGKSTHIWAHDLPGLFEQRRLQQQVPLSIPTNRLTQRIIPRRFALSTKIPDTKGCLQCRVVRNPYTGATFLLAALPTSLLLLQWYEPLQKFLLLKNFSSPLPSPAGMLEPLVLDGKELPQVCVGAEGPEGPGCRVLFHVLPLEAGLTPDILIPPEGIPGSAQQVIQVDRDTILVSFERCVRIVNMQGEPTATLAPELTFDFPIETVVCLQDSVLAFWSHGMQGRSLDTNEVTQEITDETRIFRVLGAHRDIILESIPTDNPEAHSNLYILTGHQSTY

Assay [8] concerns the target Macrophage colony-stimulating factor 1 receptor (Homo sapiens, UniProt P07333).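 Note: value comes from the Navigating the Kinome screening panel, CSF1R member.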
For assay [9], the target named is Ribosomal protein S6 kinase alpha-3 (Homo sapiens, UniProt P51812).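 Note: measured within a kinome-wide profiling panel.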
Chain of Ribosomal protein S6 kinase alpha-3 (P51812 whole entry): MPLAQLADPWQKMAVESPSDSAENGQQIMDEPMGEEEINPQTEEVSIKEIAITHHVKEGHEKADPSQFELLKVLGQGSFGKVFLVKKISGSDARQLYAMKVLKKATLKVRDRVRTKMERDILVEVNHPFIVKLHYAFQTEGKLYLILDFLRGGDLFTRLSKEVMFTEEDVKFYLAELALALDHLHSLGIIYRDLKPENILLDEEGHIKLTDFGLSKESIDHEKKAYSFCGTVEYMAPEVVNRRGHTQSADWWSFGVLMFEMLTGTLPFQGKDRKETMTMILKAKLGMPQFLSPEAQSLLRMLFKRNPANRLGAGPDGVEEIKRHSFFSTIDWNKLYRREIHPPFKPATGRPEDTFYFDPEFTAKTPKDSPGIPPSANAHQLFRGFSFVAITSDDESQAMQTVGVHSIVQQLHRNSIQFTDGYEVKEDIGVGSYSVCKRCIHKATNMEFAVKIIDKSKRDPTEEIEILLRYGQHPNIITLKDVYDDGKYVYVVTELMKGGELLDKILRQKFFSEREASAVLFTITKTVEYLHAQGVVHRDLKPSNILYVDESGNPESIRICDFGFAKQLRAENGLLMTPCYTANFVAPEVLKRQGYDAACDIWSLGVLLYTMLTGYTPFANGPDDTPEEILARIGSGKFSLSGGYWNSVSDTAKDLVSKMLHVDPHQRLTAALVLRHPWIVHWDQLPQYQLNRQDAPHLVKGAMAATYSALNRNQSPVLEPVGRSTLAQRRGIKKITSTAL
Assay [10] addresses T3, Tyrosine-protein kinase receptor TYRO3 (Homo sapiens, UniProt Q06418).
T3 sequence (Q06418 whole entry): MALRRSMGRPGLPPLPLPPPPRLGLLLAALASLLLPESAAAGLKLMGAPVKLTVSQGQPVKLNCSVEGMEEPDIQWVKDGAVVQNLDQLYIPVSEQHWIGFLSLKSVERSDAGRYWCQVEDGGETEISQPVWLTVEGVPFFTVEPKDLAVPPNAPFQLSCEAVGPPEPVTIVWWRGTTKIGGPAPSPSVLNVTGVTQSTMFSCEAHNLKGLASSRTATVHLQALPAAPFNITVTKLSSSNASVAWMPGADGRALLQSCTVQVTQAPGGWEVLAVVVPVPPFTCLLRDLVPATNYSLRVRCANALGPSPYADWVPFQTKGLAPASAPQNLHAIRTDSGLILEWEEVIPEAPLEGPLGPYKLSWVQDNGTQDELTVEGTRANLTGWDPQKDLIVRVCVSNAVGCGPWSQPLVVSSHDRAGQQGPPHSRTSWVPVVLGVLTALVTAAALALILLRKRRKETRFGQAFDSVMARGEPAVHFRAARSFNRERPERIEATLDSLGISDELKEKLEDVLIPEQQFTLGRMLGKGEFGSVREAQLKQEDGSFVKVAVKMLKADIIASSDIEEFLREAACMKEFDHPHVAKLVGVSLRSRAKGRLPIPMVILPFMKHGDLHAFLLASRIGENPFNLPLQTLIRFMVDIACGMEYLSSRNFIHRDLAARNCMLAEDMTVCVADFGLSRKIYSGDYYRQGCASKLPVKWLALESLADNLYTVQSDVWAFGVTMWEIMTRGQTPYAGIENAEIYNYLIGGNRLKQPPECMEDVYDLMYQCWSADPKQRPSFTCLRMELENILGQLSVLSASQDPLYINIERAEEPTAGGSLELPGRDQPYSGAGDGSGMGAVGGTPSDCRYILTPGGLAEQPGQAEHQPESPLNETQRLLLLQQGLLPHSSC

Assay [11] addresses Serine/threonine-protein kinase pim-1 (Homo sapiens, UniProt P11309).
Assay [12] addresses Serine/threonine-protein kinase PAK 4 (Homo sapiens, UniProt O96013).

Chain of Serine/threonine-protein kinase PAK 4 (O96013 whole entry): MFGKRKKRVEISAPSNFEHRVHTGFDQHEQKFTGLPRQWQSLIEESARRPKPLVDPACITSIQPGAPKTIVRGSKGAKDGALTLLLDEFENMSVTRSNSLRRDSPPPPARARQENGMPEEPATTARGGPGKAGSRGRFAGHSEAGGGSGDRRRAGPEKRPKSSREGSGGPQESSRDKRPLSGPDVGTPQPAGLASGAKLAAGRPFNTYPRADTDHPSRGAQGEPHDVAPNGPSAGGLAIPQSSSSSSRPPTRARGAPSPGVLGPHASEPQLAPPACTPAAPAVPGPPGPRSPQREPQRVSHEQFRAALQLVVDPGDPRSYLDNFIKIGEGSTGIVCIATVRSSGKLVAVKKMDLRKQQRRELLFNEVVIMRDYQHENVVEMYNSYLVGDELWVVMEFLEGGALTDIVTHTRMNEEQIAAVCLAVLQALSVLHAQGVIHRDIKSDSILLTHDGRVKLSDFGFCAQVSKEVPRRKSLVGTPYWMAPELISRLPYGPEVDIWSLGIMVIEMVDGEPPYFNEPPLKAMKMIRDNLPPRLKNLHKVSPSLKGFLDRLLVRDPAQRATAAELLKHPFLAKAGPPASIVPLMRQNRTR
Chain of Dual specificity protein kinase CLK4 (Q9HAZ1 whole entry): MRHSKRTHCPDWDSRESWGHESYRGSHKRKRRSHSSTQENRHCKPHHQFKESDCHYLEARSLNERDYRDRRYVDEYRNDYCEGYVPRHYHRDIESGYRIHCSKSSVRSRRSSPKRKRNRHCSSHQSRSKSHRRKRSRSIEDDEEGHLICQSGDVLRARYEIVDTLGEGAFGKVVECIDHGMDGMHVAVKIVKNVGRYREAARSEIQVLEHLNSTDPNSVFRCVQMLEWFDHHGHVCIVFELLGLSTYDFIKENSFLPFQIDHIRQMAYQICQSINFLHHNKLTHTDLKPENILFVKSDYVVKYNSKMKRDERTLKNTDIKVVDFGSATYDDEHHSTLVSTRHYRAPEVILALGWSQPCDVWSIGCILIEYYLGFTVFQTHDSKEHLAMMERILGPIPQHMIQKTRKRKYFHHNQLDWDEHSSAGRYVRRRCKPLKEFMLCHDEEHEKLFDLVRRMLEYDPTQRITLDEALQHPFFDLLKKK
Chain of Cyclin-dependent kinase 5 (Q00535 whole entry): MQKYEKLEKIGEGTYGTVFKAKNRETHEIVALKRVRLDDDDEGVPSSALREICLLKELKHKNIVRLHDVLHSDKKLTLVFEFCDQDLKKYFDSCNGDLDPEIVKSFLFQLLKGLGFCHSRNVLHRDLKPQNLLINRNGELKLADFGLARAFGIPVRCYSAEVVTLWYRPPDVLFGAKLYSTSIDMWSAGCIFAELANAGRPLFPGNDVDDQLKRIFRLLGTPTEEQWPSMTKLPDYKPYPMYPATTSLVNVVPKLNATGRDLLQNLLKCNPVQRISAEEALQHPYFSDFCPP
Chain of Macrophage colony-stimulating factor 1 receptor (P07333 whole entry): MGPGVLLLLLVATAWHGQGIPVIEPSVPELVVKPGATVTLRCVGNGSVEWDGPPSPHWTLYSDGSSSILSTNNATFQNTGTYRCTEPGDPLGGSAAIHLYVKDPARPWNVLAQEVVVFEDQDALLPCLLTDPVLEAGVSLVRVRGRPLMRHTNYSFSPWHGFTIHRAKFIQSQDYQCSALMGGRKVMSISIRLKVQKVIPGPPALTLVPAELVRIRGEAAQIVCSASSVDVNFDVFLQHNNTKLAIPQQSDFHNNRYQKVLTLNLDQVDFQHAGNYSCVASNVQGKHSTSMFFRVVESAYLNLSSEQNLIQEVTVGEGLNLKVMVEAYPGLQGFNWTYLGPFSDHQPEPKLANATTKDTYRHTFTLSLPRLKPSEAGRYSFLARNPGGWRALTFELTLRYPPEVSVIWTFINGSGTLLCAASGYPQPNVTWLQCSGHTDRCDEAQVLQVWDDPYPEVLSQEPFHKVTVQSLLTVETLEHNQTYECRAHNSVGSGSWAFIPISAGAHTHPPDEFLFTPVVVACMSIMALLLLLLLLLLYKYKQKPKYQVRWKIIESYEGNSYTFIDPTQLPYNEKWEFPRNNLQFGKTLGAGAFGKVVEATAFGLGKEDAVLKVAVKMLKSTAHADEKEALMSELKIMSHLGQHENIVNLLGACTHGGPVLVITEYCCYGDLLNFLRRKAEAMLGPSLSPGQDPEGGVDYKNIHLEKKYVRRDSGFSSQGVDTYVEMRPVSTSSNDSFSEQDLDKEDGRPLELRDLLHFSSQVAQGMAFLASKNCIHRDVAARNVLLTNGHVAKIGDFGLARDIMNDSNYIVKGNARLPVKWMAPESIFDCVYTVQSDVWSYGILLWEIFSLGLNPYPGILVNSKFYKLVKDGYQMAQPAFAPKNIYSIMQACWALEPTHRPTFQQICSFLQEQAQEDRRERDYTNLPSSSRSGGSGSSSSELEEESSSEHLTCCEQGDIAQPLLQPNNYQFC
Chain of Serine/threonine-protein kinase pim-1 (P11309 whole entry): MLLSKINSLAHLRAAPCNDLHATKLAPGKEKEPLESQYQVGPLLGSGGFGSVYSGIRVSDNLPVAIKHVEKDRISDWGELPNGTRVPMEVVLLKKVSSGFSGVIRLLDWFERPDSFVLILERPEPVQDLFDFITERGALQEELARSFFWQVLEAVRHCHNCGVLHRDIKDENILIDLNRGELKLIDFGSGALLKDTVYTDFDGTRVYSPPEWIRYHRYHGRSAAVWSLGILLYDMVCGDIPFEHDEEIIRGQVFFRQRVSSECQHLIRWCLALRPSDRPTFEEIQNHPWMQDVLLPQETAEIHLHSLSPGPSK

Take `COc1cccc(C(C)NC(=O)c2sc(-c3ccncc3)nc2C)c1` (stereo unspecified): the Ki in [1] is > 2.51 µM (inactive); in assay [2], > 1.58 µM (inactive); in assay [3], > 5.01 µM (inactive); in assay [4] it was > 2 µM (inactive); in [5], > 3.16 µM (inactive); in assay [6], > 3.98 µM (inactive). Moreover, the Ki in [7] is > 2.51 µM (inactive); in assay [8] it was > 2.51 µM (inactive); in [9] it was > 3.98 µM (inactive); in assay [10], > 3.16 µM (inactive); in assay [11], > 6.31 µM (inactive); in assay [12], > 5.01 µM (inactive).
As for `Oc1ccc(-c2nc(-c3ccncc3)c(-c3ccc(F)cc3)[nH]2)cc1` [SB-202190], the inhibition constant (Ki) in assay [1] is 2.51 µM (active); in [2] it was > 1.58 µM (inactive); in assay [3], > 5.01 µM (inactive); in assay [4], > 2 µM (inactive); in [5], > 3.16 µM (inactive); in assay [6], > 3.98 µM (inactive). For the same compound, the Ki in [7] was > 2.51 µM (inactive); in assay [8], > 2 µM (inactive); in assay [9], > 3.98 µM (inactive); in [10] it was > 3.16 µM (inactive); in assay [11], > 6.31 µM (inactive); in assay [12], > 5.01 µM (inactive).
With `CCCCC(=O)Nc1cc(-c2c[nH]c3ncccc23)cc(Cl)n1`, the Ki was 0.0126 µM (active) in [1]; > 1.58 µM (inactive) in assay [2]; > 3.16 µM (inactive) in [3]; 0.0398 µM (active) in assay [4]; 1 µM (active) in [5]; > 7.94 µM (inactive) in assay [6]. Moreover, the Ki in assay [7] is > 2.51 µM (inactive); in assay [8] it was > 2.51 µM (inactive); in assay [9], > 3.98 µM (inactive); in assay [10] it was > 3.16 µM (inactive); in assay [11], > 6.31 µM (inactive); in assay [12] it was > 5.01 µM (inactive).
